Drawing on PubChem BioAssay (NCI), this text covers TGI for 15 molecules.

Molecules are shown by their SMILES.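 48-hour exposure; five concentrations; linearly interpolated endpoints. TGI: concentration producing complete growth inhibition.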 Where a SMILES comes first, the peptide text is derived from it. The star is where a group is joined. Boc = CC(C)(C)OC(=O)*; OBn = c1ccc(CO*)cc1 Where only a bound is given, the exact number is not on record here.

Some test systems named below: EKVX NSCLC; NCI-H23 lung; NCI-H460 lung; OVCAR-5 ovarian; RXF 393 renal; SF-268 CNS; SF-295 CNS; SK-MEL-5 melanoma; TK-10 renal; A498 renal.
Holding throughout (assay): NCI anticancer screen, dose series, 48 h

Regarding `O=S1(=O)c2ccccc2NC(=S)CC1c1ccccc1` (centres undefined), the TGI with EKVX NSCLC, with NCI-H23 lung, with NCI-H460 lung, with OVCAR-5 ovarian, in the experiment with RXF 393 renal and in the experiment on SF-268 CNS was above 100 µM each time. The TGI in the experiment with SF-295 CNS is 79.8 µM; in the experiment with SK-MEL-5 melanoma it was above 100 µM; in the experiment on TK-10 renal, above 100 µM.
`COc1cc(C2SCC(=O)N2c2ccc(Oc3ccc(Cl)cc3)c(Cl)c2)cc(OC)c1OC` (centres undefined): the TGI was 56.2 µM with EKVX NSCLC; above 100 µM in the experiment on NCI-H23 lung; above 100 µM in the experiment with NCI-H460 lung; 55.7 µM in the experiment with OVCAR-5 ovarian; 31 µM in the experiment on SF-268 CNS; 34.6 µM in the experiment on SF-295 CNS. For the same molecule, the results for the TGI with SK-MEL-5 melanoma and with TK-10 renal were 32.1 µM and 33.9 µM, respectively.
Consider `COc1ccc(C2C(C#N)=C(S)N(C3OC(CO)C(O)C(O)C3O)C(c3ccccc3)=C2C(C)=O)cc1` (centres undefined), for which the TGI with A498 renal, in the experiment with NCI-H23 lung, with NCI-H460 lung, in the experiment with OVCAR-5 ovarian, in the experiment with RXF 393 renal and with SF-268 CNS was above 100 µM throughout. The TGI is above 100 µM with SF-295 CNS, 60.7 µM in the experiment with SK-MEL-5 melanoma and above 100 µM with TK-10 renal.
Take `CC(=O)Oc1ccc(C2COc3cc(OC(C)=O)c(OC(C)=O)cc3C2)cc1` (centres undefined): the TGI is 13.8 µM in the experiment with A498 renal; 32 µM in the experiment on EKVX NSCLC; 37.7 µM in the experiment on NCI-H23 lung; 47.3 µM in the experiment on NCI-H460 lung; above 97.1 µM in the experiment with OVCAR-5 ovarian; 23.8 µM in the experiment with RXF 393 renal. Further, the values for the TGI with SF-268 CNS, in the experiment on SF-295 CNS and in the experiment on SK-MEL-5 melanoma were 51.6 µM, 58.5 µM and 6.63 µM, respectively.
For the molecule `CC(C)(C)OC(=O)NC(Cc1ccccc1)C(=O)NC(Cc1ccccc1)C(=O)NCC(=O)OCc1ccccc1` (stereo not drawn) (Boc-Phe-Phe-Gly-OBn; configuration not given here), the TGI in the experiment with A498 renal is above 100 µM; with EKVX NSCLC, above 100 µM; in the experiment on NCI-H23 lung it was 80.7 µM; in the experiment on NCI-H460 lung, 49.9 µM; in the experiment on OVCAR-5 ovarian it was above 100 µM; in the experiment on SF-268 CNS, 29.4 µM. This molecule also came in with a TGI in the experiment with TK-10 renal of 53.1 µM.
Turning to `COc1c2cc(C(C)(C)C)cc1Cc1cccc(c1O)Cc1cc(C(C)(C)C)cc(c1OC)Cc1cccc(c1O)Cc1cc(C(C)(C)C)cc(c1OC)Cc1cccc(c1O)C2`, the TGI in the experiment with A498 renal, with EKVX NSCLC, with NCI-H460 lung, in the experiment with OVCAR-5 ovarian, in the experiment with RXF 393 renal and in the experiment with SF-268 CNS was above 100 µM throughout. In addition, the TGI with SF-295 CNS and in the experiment with SK-MEL-5 melanoma was above 100 µM each time.
For `O=C(CNc1ccc(Cl)cc1Cl)NC1C=Cc2ccc(S(=O)(=O)Nc3ccc(Cl)cc3Cl)cc2C1=O` (centres undefined), the TGI in the experiment with EKVX NSCLC, in the experiment on NCI-H23 lung, in the experiment with NCI-H460 lung, in the experiment with OVCAR-5 ovarian, with SF-268 CNS and with SF-295 CNS was above 100 µM in each case. Moreover, in the experiment with TK-10 renal, the TGI is above 100 µM.
As for `O=C(NCc1ccc(Cl)cc1)c1cc2sccc2nc1C(F)(F)F`, the TGI was above 100 µM with EKVX NSCLC; above 100 µM in the experiment with NCI-H23 lung; above 100 µM in the experiment with OVCAR-5 ovarian; 67.4 µM in the experiment with RXF 393 renal; 66.9 µM in the experiment on SF-268 CNS; above 100 µM in the experiment on SF-295 CNS. Further, the TGI with SK-MEL-5 melanoma and in the experiment on TK-10 renal was above 100 µM in each case.
`C#CCn1c(=O)c(C#N)c(O)c2cc3ccccc3nc21`: the TGI with A498 renal, in the experiment with EKVX NSCLC, in the experiment on NCI-H23 lung, with NCI-H460 lung, in the experiment on OVCAR-5 ovarian and in the experiment on RXF 393 renal was above 100 µM throughout. The TGI in the experiment on SF-268 CNS was above 31.6 µM; in the experiment on SF-295 CNS it was above 100 µM; in the experiment with SK-MEL-5 melanoma, above 100 µM.
As for `Cn1c2ccccc2c2c3c(c4c5ccccc5n(C)c4c21)C(=O)c1ccccc1C3=O`, the TGI in the experiment with EKVX NSCLC was above 100 µM; in the experiment with NCI-H23 lung, 63.5 µM; with NCI-H460 lung, above 100 µM; in the experiment on OVCAR-5 ovarian it was above 100 µM; in the experiment with RXF 393 renal, 48.6 µM; with SF-295 CNS, above 100 µM. For the same molecule, the TGI in the experiment on SK-MEL-5 melanoma is above 100 µM; in the experiment on TK-10 renal it was 81.3 µM.
Consider `C=CC[C@@]1(C(=O)OC)[C@H](Sc2ccccc2)C1(C)C`, for which the TGI in the experiment on A498 renal is above 100 µM; in the experiment with EKVX NSCLC, above 100 µM; in the experiment with NCI-H23 lung, 97.3 µM; with NCI-H460 lung it was above 100 µM; in the experiment with OVCAR-5 ovarian it was above 100 µM; in the experiment with SF-268 CNS, above 100 µM. Besides, the TGI was above 100 µM in the experiment with SF-295 CNS, 44.3 µM in the experiment with SK-MEL-5 melanoma and above 100 µM with TK-10 renal.
Consider `COC(=O)C1(Cc2ccccc2)Cc2ccccc2C1`, for which the TGI with EKVX NSCLC was 89.4 µM; with NCI-H23 lung, above 100 µM; in the experiment with NCI-H460 lung it was 84.9 µM; with OVCAR-5 ovarian it was above 100 µM; in the experiment on SF-268 CNS it was above 100 µM; with SF-295 CNS, 99.2 µM. For the same molecule, the TGI was 31.9 µM with SK-MEL-5 melanoma and above 100 µM in the experiment with TK-10 renal.
As for `NNC(=S)N1CCN(C(=S)NN)CC1`, the TGI with A498 renal, in the experiment with EKVX NSCLC, in the experiment with NCI-H23 lung, in the experiment on NCI-H460 lung, in the experiment on OVCAR-5 ovarian and with SF-268 CNS was above 100 µM throughout. The TGI with SF-295 CNS and with SK-MEL-5 melanoma was above 100 µM throughout.
As for `CCOC(=O)C(CS)NC(=O)CCCCCCCC(=O)NC(CS)C(=O)OCC` (centres undefined), the TGI in the experiment on A498 renal, in the experiment with EKVX NSCLC, with NCI-H23 lung, with NCI-H460 lung, in the experiment with OVCAR-5 ovarian and in the experiment on SF-295 CNS was above 100 µM in each case. The TGI in the experiment on SK-MEL-5 melanoma and with TK-10 renal was above 100 µM throughout.
In the case of `Cc1ccc(S(=O)(=O)c2c(O)c3ccccc3n(C)c2=O)cc1`, the TGI with A498 renal, with EKVX NSCLC, in the experiment with NCI-H23 lung, with NCI-H460 lung, with OVCAR-5 ovarian and in the experiment with RXF 393 renal was above 100 µM throughout. Moreover, the TGI in the experiment on SF-268 CNS, in the experiment with SF-295 CNS and in the experiment on SK-MEL-5 melanoma was above 100 µM each time.
